Results: PubChem BioAssay AID720660 (The Scripps Research Institute Molecular Screening Center, 2013)
Active and inactive are the calls of the source.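 Rule for the calls: active = EC50 of 10 µM or lower, the dose giving half of maximal activation; inactive = the rest.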

Tested on: MG132 cells, BRM-dependent luciferase reporter, 24 h
Assay: SMARCA2 (BRM) activator potency, late-stage follow-up, cell-based, luminescence, dose response (AID 720660)

EC50 | SMILES
> 91.2 µM (inactive) | O=C(NCC1(c2nc(-c3ccccc3)cs2)CCOCC1)c1cccc(-c2noc(C(F)(F)F)n2)c1
> 91.2 µM (inactive) | Cc1ccc(Nc2nc(-c3ccccc3)c(C)s2)cc1
> 91.2 µM (inactive) | Oc1ccccc1OCc1nc2ccccc2s1
> 91.2 µM (inactive) | COc1ccc(-c2nc(C#N)c(NC3CC3)o2)cc1
> 91.2 µM (inactive) | Cc1cc(C)c2nc(NC(=O)C(C)C)sc2c1
> 91.2 µM (inactive) | Clc1ccc(Cc2nc(-c3ccccc3)cs2)cc1
> 91.2 µM (inactive) | Cc1nc(NC(=O)c2cccc(Br)c2)sc1C
